# Assay results as given in the NIST ThermoML archive (doi:10.1016/j.jct.2018.08.012).
# Numbers after ± are expanded uncertainties.
# Conditions: for mass density: 298 K, 101.33 kPa, X-ray diffraction; for Triple point temperature: DSC
mass density (Crystal) [kg/m3],Compound,mass density (Crystal 3) [kg/m3],"Normal melting temperature (Crystal 1, DTA) [°C]",Triple point temperature (Crystal 2) [K],Triple point temperature (Crystal 3) [K]
5389 ± 2,[Ag+].[Ag+].[Ag+].[Ag+].[I-].[I-].[I-].[I-].[I-].[Rb+] [rubidium silver iodide (Ag4RbI5)],–,–,–,–
–,[Ag+].[Ag+].[Te-2] [silver(I) telluride],8321 ± 2,962 ± 4,1075 ± 4,418 ± 4
